From paper PMC3515450, “Mechanistic and Structural Understanding of Uncompetitive Inhibitors of Caspase-6” (PLoS ONE, 2012)

Key:
[1] = biological target: T1, covalent VEID/caspase-6 complex (Homo sapiens, UniProt P55212); test: SPR binding to VEID-FMK-blocked caspase-6; settings: covalent VEID/caspase-6 (acyl enzyme) complex, 1:1 binding
T1 construct: Residues 24-179 and 194-293 from caspase-6 cDNA (Origene) were cloned into pET-24b and pET-23b vectors; 6x histidine tag; made in house; host or cells: E. coli (as above), BirA co-expressed
T1 sequence (P55212 24-179): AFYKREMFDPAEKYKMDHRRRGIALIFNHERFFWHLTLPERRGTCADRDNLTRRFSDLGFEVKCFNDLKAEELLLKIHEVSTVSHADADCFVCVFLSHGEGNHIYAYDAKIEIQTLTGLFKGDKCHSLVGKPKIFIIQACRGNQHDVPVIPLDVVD
T1 sequence (P55212 194-293): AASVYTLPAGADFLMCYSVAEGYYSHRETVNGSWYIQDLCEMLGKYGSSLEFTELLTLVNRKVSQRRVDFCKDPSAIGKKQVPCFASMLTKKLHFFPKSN
Experimental: For SPR experiments, caspase-6 was cloned to include a C-terminal avi-tag (Avidity) and expressed and purified as above, except that biotin ligase (BirA) was co-expressed during fermentation. […] Avi-tagged zymogen C163A-caspase-6 was processed to mature C163A-caspase-6 by the addition of active caspase-3 and caspase-6. Chip preparation for neutravidin-based capture was performed as previously described using either a Biacore T100 or Biacore 3000 instrument (GE Healthcare). Running buffer was 50 mM HEPES pH 7.2, 100 mM MgSO4, 30 mM NaCl, 1 mM TCEP, 0.01% Triton X-100, 1% PEG-3350, 2.5% DMSO, and the instrument was set for 20 degrees C. After capture one flow cell of apo-caspase-6 was exposed to a continuous flow of 20 µM VEID-FMK. A rise in signal could be detected for the binding/reacting of the VEID-FMK and exposure was continued until no additional rise in response was observed (∼45 minutes) indicating full saturation of all binding sites. There was no observed decrease in signal upon washing, indicating the reaction was irreversible. […] Fluorescent substrates were too limiting in solubility and quantity to be added to the running buffer, so substrates were mixed at a concentration equal to their Kmapp with 3 and injected together over the indicated surfaces. […]

[2] = biological target: T2, caspase-6 (Homo sapiens, UniProt P55212); test: Cleavage of Lamin A by purified human caspase-6 (western blot); format: biochemical; settings: 100 µM concentration
T2 construct: Residues 24-179 and 194-293 from caspase-6 cDNA (Origene) were cloned into pET-24b and pET-23b vectors; 6x histidine tag (C); made in house; host or cells: E. coli BL21 (DE3) pLysS
T2 sequence (P55212 24-179): T1 sequence (P55212 24-179)
T2 sequence (P55212 194-293): T1 sequence (P55212 194-293)
Experimental: The assay to monitor cleavage of Lamin A by purified human caspase-6 is described in Experimental Procedures S1.
Cleavage of Lamin A by purified human Caspase-6: Recombinant caspase-6 was prepared at 6.6 nM final concentration in assay buffer (40 mM HEPES [pH 7.2], 100 mM NaCl, 1 mM EDTA, 2 mM DTT, 0.1% CHAPS, 3% DMSO), and pre-incubated at 37 °C with increasing concentrations (as indicated) of the compound to be assayed. After 30 minutes, GST-tagged Lamin A substrate (Abnova, Cat# H00004000-P01) was added to the reaction mix at a final concentration of 0.33 µM and the incubation was continued for 2 h at 37 °C. Samples were boiled for 5 min to terminate the proteolytic cleavage reaction before they were resolved by SDS-PAGE (10-20% Tris-glycine gel) and transferred to nitrocellulose. The blot was probed with mouse anti-Lamin A antibody (Abnova # H00004000-B01P) and detected with IRDye800 anti-mouse antibody (LI-COR #926-32210). […] Imaging was done on the LI-COR Odyssey® Infrared Imaging System using the 800 nm channel.

For `COc1ccc(-c2cc(C(=O)N[C@@H](CO)Cc3cccc(C#N)c3)co2)cc1OC` [Compound 3], the Kd [1] was 1300 nM and the “inhibition of caspase-6 cleavage of recombinant Lamin A” value [2] was “did not inhibit”.
